Experimental data from PMC6332312, “N-Monosubstituted Methoxy-oligo(ethylene glycol) Carbamate Ester Prodrugs of Resveratrol” (Molecules, 2015).

How the values were obtained:
[1] = Stability (hydrolysis) in rodent whole blood, 37 °C; type: in vitro ADME; conditions: rat blood; for kIII (hydrolysis rate constant, tri- to disubstituted): pseudo-first order fit; for half-life at 5 µM: whole blood, 5 µM compound
Procedure: (§1) Kinetic analysis of the data was performed by assuming that hydrolysis to resveratrol occurred via consecutive losses of the three protecting groups in pseudo-first order processes and by considering each pair of isomeric intermediates (potentially) resulting from the first and second hydrolysis steps as a single species, i.e. the two monosubstituted and the two disubstituted intermediates were handled as species I and II, respectively (Scheme 3).
Rats were anesthetized and blood was withdrawn from the jugular vein, heparinised and transferred into tubes containing EDTA. Blood samples (1 mL) were spiked with 5 µM compound (dilution from a 5 mM stock solution in DMSO), and incubated at 37 °C for 4 h (the maximum period allowed by blood stability). Aliquots were taken after 10 min, 30 min, 1 h, 2 h and 4 h and treated as described below (blood sample treatment and analysis). Cleared blood samples were finally subjected to HPLC-UV analysis.
(§2) Before starting the treatment, 4,4′-dihydroxybiphenyl was added as internal standard to a carefully-measured blood volume (25 µM final concentration). Blood was then stabilized with a freshly-prepared 10 mM solution of ascorbic acid (0.1 vol) and acidified with 0.6 M acetic acid (0.1 vol); after mixing, an excess of acetone (4 vol) was added, followed by sonication (2 min) and centrifugation (12,000× g, 7 min, 4 °C). The supernatant was finally collected and stored at −20 °C. Before analysis, acetone was allowed to evaporate at room temperature using a Univapo 150H (UniEquip, Martinsried, Germany) vacuum concentrator centrifuge, and up to 40 μL of CH3CN were added to precipitate residual proteins. After centrifugation (12,000× g, 5 min, 4 °C), cleared samples were directly subjected to HPLC-UV analysis. Metabolites and hydrolysis products were identified by comparison of chromatographic retention time with true samples.

[2] = Hydrolysis in PBS 0.1 M at pH 6.8 (intestinal pH), 37 °C; type: physicochemical; conditions: pH 6.8, 37 °C; for half-life at 5 µM: 0.1 M PBS buffer, 5 µM compound; for kII (hydrolysis rate constant, di- to monosubstituted) / kIII (hydrolysis rate constant, tri- to disubstituted): pseudo-first order fit
Procedure: as §1
As hydrolysis proceeds resveratrol will eventually form with the kinetics dictated by the constants, up to 100% conversion. The fit of the experimental data was obtained using a set of equations analogous to those utilized by Kozerski et al. and in our previous work.
The chemical stability of all new compounds was tested in aqueous media imitating gastric (0.1 N HCl, NormaFix) and intestinal (0.1 M PBS buffer, at pH 6.8) pH conditions. A 5 µM solution of the compound was prepared from a 5 mM stock solution in DMSO, and incubated at 37 °C for 24 h; samples withdrawn at different times were analyzed by HPLC-UV. Hydrolysis products were identified by HPLC/ESI-MS analysis of selected samples. Non-linear curve fitting was performed using Origin 8.0 data analysis software, using the equations described in [61, 62].

[3] = Pharmacokinetic study after single intragastric bolus to rats; type: in vivo, male Wistar rats; conditions: rat, single intragastric bolus 88 µmol/kg; for Tmax: male, Wistar, whole blood, po, 88 umol/kg, read-out: time of peak blood level after administration (converted); for peak blood concentration of prodrug (absorption): N = 3
Procedure: All the N-monosubstituted methoxy-oligo(ethylene glycol) carbamate ester prodrugs were tested for their in vivo absorption and metabolism. Pharmacokinetic studies were performed with rats, and each compound was administered as a single intragastric bolus, in an equimolar dose/kg body weight (88 µmol/kg). Blood samples were taken at different time points, treated as described in the Materials and Methods section and analyzed.
as §2
Derivatives 2–4 were administered to overnight-fasted male Wistar rats from the facility of the Department of Biomedical Sciences, University of Padova, as a single intragastric dose (88 µmol/kg, dissolved in 250 µL DMSO) delivered with a commercial stainless steel feeding tube (www.2biol.com) to have a precise starting time. Wistar rats are commonly used for such studies (e.g., [60]). Relatively young adults (3–5 months) were used in order to have a fully developed metabolism as well as a body weight (300–400 g) which would limit the amount of synthetic compound to be used.
Blood samples were obtained by the tail bleeding technique: before drug administration, rats were anesthetized with isoflurane and the tip of the tail was cut off; blood samples (80–100 µL each) were then taken from the tail tip at different time points after drug administration. Blood was collected in heparinized tubes, kept in ice and treated as described above within 10 min. All experiments involving animals were performed with the permission and supervision of the University of Padova Ethical Committee for Experimentation on Animals (CEASA) and Central Veterinary Service, in compliance with Italian Law DL 116/92, embodying EU Directive 86/609. Significance in comparisons was assessed using the Wilcoxon Rank Test.

Compound | kIII (hydrolysis rate constant, tri- to disubstituted) [1] [h⁻¹] | half-life at 5 µM [1] [min] | half-life at 5 µM [2] [min] | kII (hydrolysis rate constant, di- to monosubstituted) [2] [h⁻¹] | kIII (hydrolysis rate constant, tri- to disubstituted) [2] [h⁻¹] | appearance of resveratrol, derivatives or metabolites (stilbene derivatives) in blood samples [3] | Tmax [3] [min] | peak blood concentration of prodrug (absorption) [3] [µM]
COCCOCCOCCNC(=O)Oc1ccc(/C=C/c2cc(OC(=O)NCCOCCOCCOC)cc(OC(=O)NCCOCCOCCOC)c2)cc1 [Compound 2, (E)-5-(4-(2-(2-(2-Methoxyethoxy)ethoxy)ethyl)carbamate)-1,3-phenylene bis((2-(2-(2-methoxyethoxy)ethoxy)ethyl)carbamate)] | 1.47 ± 0.08 | 30 | 360 | 0.030 ± 0.002 | 0.104 ± 0.002 | did not result in the appearance of detectable amounts | – | –
COCCOCCOCCOCCNC(=O)Oc1ccc(/C=C/c2cc(OC(=O)NCCOCCOCCOCCOC)cc(OC(=O)NCCOCCOCCOCCOC)c2)cc1 [Compound 3, (E)-5-(4-(5,8,11-Tetraoxatridecan-13-ylcarbamate)styryl)-1,3-phenylene bis(2,5,8,11-tetraoxatridecan-13-ylcarbamate)] | 2.0 ± 0.2 | 18 | 210 | 0.042 ± 0.005 | 0.134 ± 0.007 | measurable levels | 10 | 0.3
COCCOCCOCCOCCOCCOCCNC(=O)Oc1ccc(/C=C/c2cc(OC(=O)NCCOCCOCCOCCOCCOCCOC)cc(OC(=O)NCCOCCOCCOCCOCCOCCOC)c2)cc1 [Compound 4, (E)-5-(4-(2,5,8,11,14,17-Hexaoxanonadecan-19-ylcarbamate)styryl)-1,3-phenylene bis(2,5,8,11,14,17-hexaoxanonadecan-19-ylcarbamate)] | 1.25 ± 0.08 | 30 | 270 | 0.051 ± 0.001 | 0.158 ± 0.002 | measurable levels | 10 | 0.1
